Reference: patent US8022205B2, “Pyrimidine derivatives as PI3K inhibitor and use thereof” (Chugai Seiyaku Kabushiki Kaisha, priority 2006, dated 2011)

Legend:
[1] = target: human PI3K(p110α/p85α) (Homo sapiens, UniProt P42336); test: Measurement of PI3K inhibitory activity (AlphaScreen GST Detection Kit); type: biochemical; conditions: 10 μM ATP, 4 μM PI(4,5)P2, read-out: Enzyme inhibitory activity (IC50, μM) PI3K α
Description: The inhibitory activity of compounds of the present invention represented by formula (I) were measured with human PI3K(p110α/p85α) prepared in a baculovirus expression system using the AlphaScreen GST Detection Kit (Perkin Elmer, Inc.). A predetermined concentration of the compound dissolved in dimethylsulfoxide (DMSO) and PI3K were mixed in a 384-well assay plate and after allowing to stand for 20 minutes at room temperature, 4 μM PI(4,5)P2 (Echelon Corporation) and 10 μM ATP (5 mM Hepes, pH 7.5, 2.5 mM MgCl2) were added to initiate the reaction. After reacting for 15 minutes at 37° C., GST-GRP1 expressed and purified from Escherichia coli, Anti-GST Acceptor Beads (Perkin Elmer, Inc.), Streptavidin Donor Beads (Perkin Elmer, Inc.) and biotin-PI(3,4,5) P3 (Echelon Corporation) (10 mM Tris-HCl pH 7.4, 150 mM NaCl, 7.5 mM EDTA, 1 mM DTT, 0.1% Tween 20) were added, and after allowing to stand for 1 hour at room temperature, light at 520 to 620 nm emitted as a result of exciting with light at 680 nm was measured with the Envision measuring instrument (Perkin Elmer, Inc.).
Test Example 1 described above can be performed according to “Analytical Biochemistry, 2003, 313, 234-245; Alexander Gray et al”.

[2] = tested on: human colon cancer cell line HCT116; test: Cell proliferation inhibitory activity (Cell Counting Kit-8), colon cancer HCT116; type: cell-based; conditions: HCT-116, 96 h, HCT116, 4 days
Description: (§1) The cell proliferation inhibitory activity was measured for compounds of the present invention represented by formula (I). Cancer cell proliferation inhibitory activity was measured using the Cell Counting Kit-8 (Dojindo). 2000 cells each of human colon cancer cell line HCT116 purchased from the American Type Culture Collection (Virginia, USA) were seeded into each well of a 96-well culture plate followed by the addition of a predetermined concentration of the compounds and cultivating in a CO2environment for 4 days at 37° C. On the fourth day of cultivating, the Cell Counting Kit-8 solution was added and absorbance (measuring wavelength: 450 nm, reference wavelength: 615 nm) was measured in accordance with the protocol provided with the kit.

[3] = tested on: human prostate cancer cell line PC3; test: Cell proliferation inhibitory activity (Cell Counting Kit-8), prostate cancer PC3; type: cell-based; conditions: 96 h, PC3, 4 days
Description: as §1
(§2) Cancer cell proliferation inhibitory activity was also measured for human lung cancer cell line NCI-H460 and human prostate cancer cell line PC3 purchased from the American Type Culture Collection. 1000 and 3000 cells of NCI-H460 and PC3, respectively, were seeded into each well of a 96-well culture plate followed by testing in the same manner as the human colon cancer cell line and calculating the percentage of cell proliferation inhibition at 2.5 μM.

[4] = tested on: human lung cancer cell line NCI-H460; test: Cell proliferation inhibitory activity (Cell Counting Kit-8), lung cancer NCI-H460; type: cell-based; conditions: 96 h, NCI-H460, 4 days, read-out: Cell proliferation inhibitory activity (% Inhibition at 2.5 μM) Non-small cell lung cancer (NCI-H460)
Description: as §1, §2

Chain of human PI3K(p110α/p85α) (P42336 whole entry): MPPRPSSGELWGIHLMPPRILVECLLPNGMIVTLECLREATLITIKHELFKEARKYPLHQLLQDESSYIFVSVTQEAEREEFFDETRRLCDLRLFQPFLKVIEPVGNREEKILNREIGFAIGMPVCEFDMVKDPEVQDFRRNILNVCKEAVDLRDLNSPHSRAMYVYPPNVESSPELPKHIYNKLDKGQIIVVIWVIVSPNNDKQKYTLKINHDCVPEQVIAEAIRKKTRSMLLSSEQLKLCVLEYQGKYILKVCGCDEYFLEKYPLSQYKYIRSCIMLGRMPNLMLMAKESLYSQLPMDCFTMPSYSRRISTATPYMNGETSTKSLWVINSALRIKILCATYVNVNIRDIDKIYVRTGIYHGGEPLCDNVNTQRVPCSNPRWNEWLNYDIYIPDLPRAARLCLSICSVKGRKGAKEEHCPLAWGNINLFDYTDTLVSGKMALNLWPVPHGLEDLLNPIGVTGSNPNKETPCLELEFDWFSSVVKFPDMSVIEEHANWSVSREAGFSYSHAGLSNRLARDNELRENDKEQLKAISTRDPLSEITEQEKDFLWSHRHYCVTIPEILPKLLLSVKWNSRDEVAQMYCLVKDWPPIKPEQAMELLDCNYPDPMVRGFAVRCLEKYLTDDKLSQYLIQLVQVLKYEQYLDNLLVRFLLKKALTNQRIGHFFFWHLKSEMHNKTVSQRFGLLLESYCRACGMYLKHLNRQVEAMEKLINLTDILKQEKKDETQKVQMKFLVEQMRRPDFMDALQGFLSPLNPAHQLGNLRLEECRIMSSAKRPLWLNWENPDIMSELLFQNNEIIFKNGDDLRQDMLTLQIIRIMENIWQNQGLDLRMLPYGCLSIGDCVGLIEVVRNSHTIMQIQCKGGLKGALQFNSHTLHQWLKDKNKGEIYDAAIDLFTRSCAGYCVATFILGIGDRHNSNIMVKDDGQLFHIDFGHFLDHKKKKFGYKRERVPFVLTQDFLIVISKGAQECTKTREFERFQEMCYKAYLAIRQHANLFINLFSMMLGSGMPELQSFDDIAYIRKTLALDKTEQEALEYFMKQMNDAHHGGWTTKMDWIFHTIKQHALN
Chain of human PI3K(p110α/p85α) (P27986 whole entry partner): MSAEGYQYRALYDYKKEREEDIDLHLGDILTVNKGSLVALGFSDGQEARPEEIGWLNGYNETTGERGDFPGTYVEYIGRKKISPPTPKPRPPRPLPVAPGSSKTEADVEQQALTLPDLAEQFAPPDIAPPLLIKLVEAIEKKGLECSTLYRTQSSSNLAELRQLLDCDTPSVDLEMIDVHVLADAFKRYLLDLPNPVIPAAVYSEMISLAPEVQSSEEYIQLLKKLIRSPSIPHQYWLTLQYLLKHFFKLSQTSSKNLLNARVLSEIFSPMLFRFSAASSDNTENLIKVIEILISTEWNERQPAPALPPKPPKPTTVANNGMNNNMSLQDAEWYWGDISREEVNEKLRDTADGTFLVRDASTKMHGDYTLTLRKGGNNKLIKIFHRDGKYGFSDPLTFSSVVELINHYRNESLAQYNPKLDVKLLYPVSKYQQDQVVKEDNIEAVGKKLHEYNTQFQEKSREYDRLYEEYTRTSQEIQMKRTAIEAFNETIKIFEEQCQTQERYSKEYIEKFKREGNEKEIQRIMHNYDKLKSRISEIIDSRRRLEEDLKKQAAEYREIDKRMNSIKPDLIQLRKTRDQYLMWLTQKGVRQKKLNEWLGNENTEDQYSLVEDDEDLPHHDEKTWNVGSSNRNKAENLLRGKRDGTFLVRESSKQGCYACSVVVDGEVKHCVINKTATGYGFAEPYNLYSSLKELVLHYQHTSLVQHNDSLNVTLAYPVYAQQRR

IC50 [1] [µM] | SMILES | inhibition at 2.5 µM [2] [%] | inhibition at 2.5 µM [3] [%] | inhibition at 2.5 µM [4] [%]
0.06 | Nc1ncc(-c2nc(N3CCOCC3)nc3c2CCN3c2ccc(C(=O)NCc3cccnc3)cc2)cn1 [Example D-19, 4-[4-(2-Amino-pyrimidin-5-yl)-2-morpholin-4-yl-5,6-dihydro-pyrrolo[2,3-d]pyrimidin-7-yl]-N-pyridin-3-ylmethyl-benzamide] | 73 | 102 | 97
0.046 | Nc1ncc(-c2nc(N3CCOCC3)nc3c2CCN3c2ccc(C(=O)N3CCN(c4cccnc4)CC3)cc2)cn1 [Example D-20, {4-[4-(2-Amino-pyrimidin-5-yl)-2-morpholin-4-yl-5,6-dihydro-pyrrolo[2,3-d]pyrimidin-7-yl]-phenyl}-(4-pyridin-3-yl-piperazin-1-yl)-methanone] | 83 | 99 | 99
0.01 | Nc1ncc(-c2nc(N3CCOCC3)nc3c2CCN3c2ccc(C(=O)N3CCN(c4cccnc4)CC3)cc2F)cn1 [Example D-21, {4-[4-(2-Amino-pyrimidin-5-yl)-2-morpholin-4-yl-5,6-dihydro-pyrrolo[2,3-d]pyrimidin-7-yl]-3-fluoro-phenyl}-(4-pyridin-3-yl-piperazin-1-yl)-methanone] | 77 | 100 | 79
0.042 | Nc1ncc(-c2nc(N3CCOCC3)nc3c2CCN3c2ccc(C(=O)N3CCOCC3)cc2F)cn1 [Example D-22, {4-[4-(2-Amino-pyrimidin-5-yl)-2-morpholin-4-yl-5,6-dihydro-pyrrolo[2,3-d]pyrimidin-7-yl]-3-fluoro-phenyl}-morpholin-4-yl-methanone] | 82 | 79 | 83
0.006 | CN1CCN(c2cc(F)c(NC(=O)N3CCc4c(-c5cnc(N)nc5)nc(N5CCOCC5)nc43)c(F)c2)CC1 [Example D-23, 4-(2-Amino-pyrimidin-5-yl)-2-morpholin-4-yl-5,6-dihydro-pyrrolo[2,3-d]pyrimidine-7-carboxylic acid [4-(4-methyl-piperazin-1-yl)-2,6-difluoro-phenyl]-amide] | 99 | 89 | 100
0.034 | CCN1CCN(C(=O)c2cc(F)c(NC(=O)N3CCc4c(-c5cnc(N)nc5)nc(N5CCOCC5)nc43)c(F)c2)CC1 [Example D-24, 4-(2-Amino-pyrimidin-5-yl)-2-morpholin-4-yl-5,6-dihydro-pyrrolo[2,3-d]pyrimidine-7-carboxylic acid [4-(4-ethyl-piperazine-1-carbonyl)-2,6-difluoro-phenyl]-amide] | 88 | 91 | 94
0.22 | Cc1ccc(C(=O)N2CCOCC2)cc1N1CCc2c(-c3cnc(N)nc3)nc(N3CCOCC3)nc21 [Example D-25, {3-[4-(2-Amino-pyrimidin-5-yl)-2-morpholin-4-yl-5,6-dihydro-pyrrolo[2,3-d]pyrimidin-7-yl]-4-methyl-phenyl}-morpholin-4-yl-methanone] | 61 | 55 | 57
0.048 | CN1CCN(Cc2ccc(N3CCc4c(-c5cnc(N)nc5)nc(N5CCOCC5)nc43)cc2)CC1 [Example D-26, 5-{7-[4-(4-methyl-piperazin-1-ylmethyl)-phenyl]-2-morpholin-4-yl-6,7-dihydro-5H-pyrrolo[2,3-d]pyrimidin-4-yl}-pyrimidin-2-ylamine] | 87 | 82 | 84
0.014 | CN1CCN(C(=O)c2ccc(N3CCc4c(-c5cnc(N)nc5)nc(N5CCOCC5)nc43)cc2)CC1 [Example D-42, {4-[4-(2-Amino-pyrimidin-5-yl)-2-morpholin-4-yl-5,6-dihydro-pyrrolo[2,3-d]pyrimidin-7-yl]-phenyl}-(4-methyl-piperazin-1-yl)-methanone] | 91 | 88 | 94
0.007 | CCN1CCN(C(=O)c2ccc(N3CCc4c(-c5cnc(N)nc5)nc(N5CCOCC5)nc43)cn2)CC1 [Example D-95, {5-[4-(2-Amino-pyrimidin-5-yl)-2-morpholin-4-yl-5,6-dihydro-pyrrolo[2,3-d]pyrimidin-7-yl]-pyridin-2-yl}-(4-ethyl-piperazin-1-yl)-methanone] | 93 | 91 | 83
0.009 | CCN1CCN(C(=O)c2cccc(NC(=O)N3CCc4c(-c5cnc(N)nc5)nc(N5CCOCC5)nc43)c2)CC1 [Example D-101, 4-(2-Amino-pyrimidin-5-yl)-2-morpholin-4-yl-5,6-dihydro-pyrrolo[2,3-d]pyrimidine-7-carboxylic acid [3-(4-ethyl-piperazine-1-carbonyl)-phenyl]-amide] | 92 | 89 | 67
0.007 | Nc1ncc(-c2nc(N3CCOCC3)nc3c2CCN3C(=O)Nc2cccc(C(=O)N3CCOCC3)c2)cn1 [Example D-102, 4-(2-Amino-pyrimidin-5-yl)-2-morpholin-4-yl-5,6-dihydro-pyrrolo[2,3-d]pyrimidine-7-carboxylic acid [3-(morpholine-4-carbonyl)-phenyl]-amide] | 72 | 70 | 94
0.006 | CCN1CCN(C(=O)c2ccc(NC(=O)N3CCc4c(-c5cnc(N)nc5)nc(N5CCOCC5)nc43)cc2)CC1 [Example D-103, 4-(2-Amino-pyrimidin-5-yl)-2-morpholin-4-yl-5,6-dihydro-pyrrolo[2,3-d]pyrimidine-7-carboxylic acid [4-(4-ethyl-piperazine-1-carbonyl)-phenyl]-amide] | 74 | 80 | 92
0.006 | Nc1ncc(-c2nc(N3CCOCC3)nc3c2CCN3C(=O)Nc2ccc(C(=O)N3CCOCC3)cc2)cn1 [Example D-104, 4-(2-Amino-pyrimidin-5-yl)-2-morpholin-4-yl-5,6-dihydro-pyrrolo[2,3-d]pyrimidine-7-carboxylic acid [4-(morpholine-4-carbonyl)-phenyl]-amide] | 37 | 34 | 67
0.007 | Nc1ncc(-c2nc(N3CCOCC3)nc3c2CCN3C(=O)Nc2ccc(NCCN3CCOCC3)cc2)cn1 [Example D-108, 4-(2-Amino-pyrimidin-5-yl)-2-morpholin-4-yl-5,6-dihydro-pyrrolo[2,3-d]pyrimidine-7-carboxylic acid [4-(2-morpholin-4-yl-ethylamino)-phenyl]-amide] | 92 | 90 | 95
0.008 | Nc1ncc(-c2nc(N3CCOCC3)nc3c2CCN3c2ccc(C(=O)N3CCNCC3)nc2)cn1 [Example D-128, {5-[4-(2-Amino-pyrimidin-5-yl)-2-morpholin-4-yl-5,6-dihydro-pyrrolo[2,3-d]pyrimidin-7-yl]-pyridin-2-yl}-piperazin-1-yl-methanone] | 81 | 60 | 95
0.092 | Cc1cc(C(=O)N2CCOCC2)ccc1N1CCc2c(-c3cnc(N)nc3)nc(N3CCOCC3)nc21 [Example D-137, {4-[4-(2-Amino-pyrimidin-5-yl)-2-morpholin-4-yl-5,6-dihydro-pyrrolo[2,3-d]pyrimidin-7-yl]-3-methyl-phenyl}-morpholin-4-yl-methanone] | 60 | 71 | 52
0.11 | CCN1CCN(C(=O)c2ccc(N3CCc4c(-c5cnc(N)nc5)nc(N5CCOCC5)nc43)c(F)c2)CC1 [Example D-138, {4-[4-(2-Amino-pyrimidin-5-yl)-2-morpholin-4-yl-5,6-dihydro-pyrrolo[2,3-d]pyrimidin-7-yl]-3-fluoro-phenyl}-(4-ethyl-piperazin-1-yl)-methanone] | 82 | 85 | 86
